# Measured values from publication PMC11997307, “Rat Sarcoma (RAS)-Protein-Targeting Synthetic Cell-Penetrating Peptide as an Anticancer Biomaterial” (Biomaterials Research, 2025).
# Legend:
# integrin alpha 3 = target: T1, integrin alpha 3 (Homo sapiens, UniProt P26006); experiment: SPR (Biacore) binding of RBP to immobilized integrin alpha 3 (selectivity control); details: CM5 chip, integrin alpha 3 immobilized, 11 concentrations of RBP
# T1 sequence (P26006 33-1051): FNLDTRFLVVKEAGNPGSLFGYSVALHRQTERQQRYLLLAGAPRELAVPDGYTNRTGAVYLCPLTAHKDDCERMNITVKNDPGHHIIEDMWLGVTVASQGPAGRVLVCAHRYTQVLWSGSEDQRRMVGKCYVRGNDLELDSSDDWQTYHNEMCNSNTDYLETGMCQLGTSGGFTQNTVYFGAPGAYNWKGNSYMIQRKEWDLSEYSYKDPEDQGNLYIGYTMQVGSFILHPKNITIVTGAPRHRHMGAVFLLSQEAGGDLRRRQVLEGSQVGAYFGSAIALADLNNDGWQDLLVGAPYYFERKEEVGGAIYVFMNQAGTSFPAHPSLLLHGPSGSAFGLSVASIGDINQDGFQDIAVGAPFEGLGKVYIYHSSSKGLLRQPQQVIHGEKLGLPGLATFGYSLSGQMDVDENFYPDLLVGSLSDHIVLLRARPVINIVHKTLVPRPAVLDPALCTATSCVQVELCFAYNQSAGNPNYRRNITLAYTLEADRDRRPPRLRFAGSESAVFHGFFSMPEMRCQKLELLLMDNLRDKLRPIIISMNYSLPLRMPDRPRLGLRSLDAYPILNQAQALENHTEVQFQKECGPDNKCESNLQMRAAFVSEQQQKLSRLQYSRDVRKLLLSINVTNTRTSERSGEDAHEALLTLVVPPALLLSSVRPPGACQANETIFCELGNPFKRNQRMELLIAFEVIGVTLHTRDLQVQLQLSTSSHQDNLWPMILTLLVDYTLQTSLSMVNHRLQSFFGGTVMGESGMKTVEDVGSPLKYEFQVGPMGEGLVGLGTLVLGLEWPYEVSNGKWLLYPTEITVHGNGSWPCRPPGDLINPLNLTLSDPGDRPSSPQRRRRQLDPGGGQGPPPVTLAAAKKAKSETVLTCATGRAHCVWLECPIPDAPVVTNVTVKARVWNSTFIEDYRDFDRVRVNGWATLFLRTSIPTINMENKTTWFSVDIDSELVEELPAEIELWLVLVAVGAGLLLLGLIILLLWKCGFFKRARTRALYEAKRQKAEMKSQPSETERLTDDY
# Procedure: N-Hydroxysuccinimide (NHS) and EDC were used as cross-linkers. The remaining unreacted active groups on the dextran surface were blocked with ethanolamine. The running buffer consisted of 150 mM NaCl, 5 mM EDTA, and 0.05% Tween 20 in 10 mM Hepes, pH 7.4. A CM5 chip without immobilized protein was used as the blank surface in the Biacore assay (Biacore T100, GE Healthcare Bio-Sciences AB, Uppsala, Sweden). […] The dissociation phase was conducted for 5 min.
# HCT-116 cells = experiment: Cell viability, CCK-8 assay, HCT-116; type: cell-based, human; details: HCT-116 (KRAS G13D), CCK-8, 0-1,000 μM RBP, 24, 48 or 72 h, triplicate
# Procedure: The viability of the cells was determined via Cell Counting Kit-8 (CCK-8; Dojindo Laboratories, Kumamoto, Japan) assay. The cells were plated in 96-well culture plates at a density of 5 × 10^3 cells per well and incubated for 24 h at 37 °C in a humidified incubator with 5% CO2. […] After incubation, the medium was replaced with fresh medium containing 10% (v/v) CCK-8 reagent, and the cells were incubated for 2 h. Absorbance was measured at 450 nm using a microplate reader. All experiments were performed in triplicate.
# MDA-MB-231 cells [1] = experiment: Tumor colony forming assay; type: cell-based, human; details: MDA-MB-231, 0, 1, 10, 50, 100 or 200 μM RBP, 5 d, crystal violet
# Procedure: MDA-MB-231 cells were plated in 24-well culture plates at a density of 1 × 10^3 cells per well and incubated for 24 h at 37 °C in a humidified incubator with 5% CO2. […] The cells were fixed with Carnoy’s fixative (75% methanol and 25% acetic acid) for 5 min at room temperature and stained with 0.4% crystal violet for 5 min. After staining, the cells were rinsed with distilled water, and images were taken.
# MDA-MB-231 cells [2] = experiment: Sphere formation assay; type: cell-based, human
# Procedure: The sphere formation potential of the cells was evaluated under nonadherent culture conditions. The cells were cultured in ultralow-attachment 6-well plates (Corning Life Sciences, MA, USA) at a density of 2 × 10^3 cells per well, since the low overall viability of […] prevents the use of single-cell culture methods. The cells were grown in DMEM/F12 (Invitrogen, CA, USA) supplemented with B27 serum-free supplement (1:50; Invitrogen, CA, USA), human recombinant epidermal growth factor (EGF), and 50 ng/ml human recombinant basic fibroblast growth factor (PeproTech, NJ, USA) with 100 μM peptides at 37 °C with 5% CO2. Fresh medium was added every 3 to 4 d, and sphere formation was monitored. The experiment was terminated on day 10, and the number of spheres (>50 μm) was quantified.
# [3] = tested on: phospho-c-RAF and phospho-ERK1/2 in HCT-116 cells; experiment: Western blot of RAS-MAPK pathway, HCT-116; type: cell-based, human; details: HCT-116, 10-250 μM RBP 6 h then 50 ng/ml EGF 10 min
# Procedure: Protein expression was confirmed via Western blot analysis. Briefly, 9 × 10^5 cells were cultured in 100-mm-diameter dishes. When they reached 90% confluence, the cells were starved for 18 h in serum-free medium. […] At the end of the culture period, the cells were lysed for 20 min in cold lysis buffer on ice. Protein concentration was measured using bicinchoninic acid protein assays (Thermo Fisher Scientific, MA, USA). Equal aliquots of protein (40 μg) were boiled for 7 min in 5× sample buffer and separated by 10% SDS–PAGE. Proteins were transferred onto nitrocellulose membranes, followed by washing with Tris-buffered saline (TBS) containing 0.1% Tween 20 (TBST). The membranes were then blocked for 60 min at room temperature with 5% skim milk in TBST. Following the washing procedure, the membranes were incubated with primary antibodies (RAS, phospho-ERK1/2, ERK1/2, phospho-RAF proto-oncogene serine/threonine-protein kinase [phospho-c-RAF; S338], c-RAF [Cell Signaling Technology, Beverly, MA, USA], and GAPDH [Santa Cruz Biotechnology, Inc., Santa Cruz, CA, USA]) diluted in TBST containing 5% skim milk at 4 °C for 18 h. […] The membranes were subsequently washed 3 more times, and protein bands were detected using chemiluminescence reagents (West Pico PLUS, Thermo Fisher Scientific, USA).
compound,measurement,setting,value
C[C@@H](O)[C@H](NC(=O)[C@H](CO)NC(=O)[C@H](CS)NC(=O)[C@H](CCCCN)NC(=O)CN)C(=O)N[C@@H](CCCNC(=N)N)C(=O)NCC(=O)N[C@@H](CCCNC(=N)N)C(=O)N[C@@H](CCCCN)C(=O)N[C@@H](CS)C(=O)N[C@@H](CS)C(=O)N[C@@H](CCCNC(=N)N)C(=O)N[C@@H](CCCNC(=N)N)C(=O)N[C@@H](CCCCN)C(=O)N[C@@H](CCCCN)C(N)=O [RBP],binding to unrelated receptor integrin alpha 3,integrin alpha 3,did not bind
same,percentage of viable cells,HCT-116 cells,reduced the percentage of viable KRAS G13D mutant cells in a dose-dependent manner
same,colony area,MDA-MB-231 cells [1],dose-dependent decrease in colony area
same,spherical colonies observed in RBP-treated groups,"MDA-MB-231 cells [2]; MDA-MB-231, serum-free medium with growth factors, nonadherent conditions, after 3 d (Fig. 2C legend)",no colonies >30 μm in diameter were observed
same,sphere proliferation vs control,"MDA-MB-231 cells [2]; MDA-MB-231, ultralow-attachment plates, 100 μM peptide added on the first day, 10 d",significantly suppressed
same,activation of RAF (phospho-c-RAF),[3],effectively inhibited
same,phosphorylation of ERK1/2,"[3]; p-ERK/ERK, n = 3",effectively inhibited
